Source: patent US4281009A, “Hydantoin derivatives” (Nippon Zoki Pharmaceutical Co., Ltd., priority 1978, dated 1981)

Assays:
SART stress mice = assay: Inhibitory effects on increase of heart rate and elongation of QRS-time in SART stress mice; format: in vivo, mice (dd-strain male); conditions: 9th day, Average ± S.D.
Method: SART stress animals used in the tests described below were raised according to a method of Kita, et al. [Folia Pharmacol. Japan.: 71, 195-210 (1975)].
2. Inhibitory effects on increase of heart rate and elongation of QRS-time in stress animals:
Groups of mice each comprising 11 or 12 dd-strain male mice were divided into three groups in the same manner as above and heart rate and QRS-time were determined on the 9th day after initiation of the tests.

[1] = Acute toxicity test (LD50, Litchfield-Wilcoxon), rats; conditions: rat, in vivo, ip, intraperitoneal
Method: (§1) Toxicity tests were carried out by intraperitoneal administration of the compound of the present invention to groups each comprising 10 ICR-strain mice and SD-strain rats. LD50 was calculated by the Litchfield-Wilcoxon method based on the number of death 72 hours after the administration.

[2] = tested on: normal mice and SART stress mice; assay: Analgesic effect, tail pressure method (Randall-Selitto's device); format: in vivo, mice (ddY-strain male); conditions: for change in vivo at 100 mg/kg / change in vivo at 160 mg/kg: Mus musculus; for change in vivo at 160 mg/kg: peroral 160 mg/kg
Summary of the method: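 Randall-Selitto tail pressure threshold measured 60 min after intraperitoneal dosing, expressed as post/pre-dose pressure ratio versus vehicle control (0.5% CMC-Na or 0.5% Tween 80, 10 ml/kg). For oral dosing, mean of readings at 30, 60, 90 and 120 min used.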

dd-strain male mice [3] = assay: Antiulcerogenic effect on Takagi's restraint-plus-water-immersing ulcer; format: in vivo; conditions: Mus musculus, ip; for inhibition in vivo at 125 mg/kg: 125 mg/kg intraperitoneal
Summary of the method: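 Groups of 8–26 male dd mice given compound intraperitoneally immediately before restraint plus water immersion (Takagi method). Summed lesion length in the glandular stomach was compared with that of the control group.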

dd-strain male mice [4] = assay: Inhibitory effect on exploratory movements; format: in vivo; conditions: after 60 minutes
Method: 4.2. Inhibitory effect on exploratory movements:
Groups each comprising 16-35 dd-strain male mice were used. The compounds of the present invention were given intraperitoneally. After 60 minutes, exploratory movements for 15 minutes were measured with an exploratory movement recorder by a method of Tokyo Kyoiku University.

[5] = tested on: spontaneously hypertensive rats (SHR); assay: Antihypertensive effect in spontaneously hypertensive rats; format: in vivo; conditions: 60 minutes
Method: 8. Antihypertensive effect: Groups of rats each comprising 6-9 spontaneously hypertensive rats (SHR) were used. The compounds of the present invention or DPH was given intraperitoneally. The rate of antihypertension 60 minutes after the administration was determined.

[6] = Acute toxicity test (LD50, Litchfield-Wilcoxon), mice; conditions: mouse, in vivo, ip, intraperitoneal
Method: as §1

[7] = tested on: normal mice and SART stress mice; assay: Analgesic effect, acetic acid writhing method; format: in vivo; conditions: Mus musculus, sc, 100 mg/Kg subcutaneously
Summary of the method: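 Normal mice and mice after 8 days of SART stress (5 per group) received 100 mg/Kg compound subcutaneously. Writhing was then induced with 0.7% acetic acid in isotonic saline, 0.1 ml/10 g i.p. Writhes were counted over 15 minutes and compared with control mice.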

dd-strain male mice [8] = assay: Inhibitory effect on spontaneous motor activities (Animex method); format: in vivo; conditions: after 60 minutes
Method: 4.1 Inhibitory effect on spontaneous motor activities:
Groups each comprising 8-16 dd-strain male mice were used. The compounds of the present invention were given intraperitoneally. After 60 minutes, spontaneous motor activities for 15 minutes were measured by the Animex method.

[9] = tested on: normal rats and SART stress rats; assay: Analgesic effect, pain induced by Bradykinin; format: in vivo, rats (SD-strain male)
Method: 5.4 Method of measuring a pain induced by Bradykinin:
Groups each comprising 4-8 SD-strain male normal rats and SART stress rats to which SART stress had been applied for 4 days were used. The tests were carried out according to the method of Deffenu et al. [Deffenu, G., Pegrassi, L., & Fumachi. B.; J. Pharm. Pharmacol.; 18, 135 (1966)] and Blane method [Blane, G. F.; J. Pharm. Pharmacol.; 19, 367 (1967)]. The effect judged was shown by ratio of the rats in which the effect was recognized according to the method of Abe, et al. [Abe, Kaneko & Takagi; Folia Pharmacol. Japon.; 67, 9-14 (1971)].

[10] = tested on: normal mice and SART stress mice; assay: Analgesic effect, D'Amour-Smith method; format: in vivo, mice (ddY-strain male); conditions: for responders at 100 mg/kg / responders at 160 mg/kg: Mus musculus; for responders at 160 mg/kg: peroral 160 mg/kg; for Analgesic effect: peroral 50 mg/kg
Summary of the method: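 ddY male normal mice and mice under 4-day SART stress (n=10/group); black-inked tail root irradiated with infrared rays (up to 15 s cutoff), escape latency recorded. Effect expressed as proportion of mice whose mean latency at 30, 60, 90 and 120 min post-dose was at least 2× pre-dose latency.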

[11] = ip, 1 h, SART stress mice, intraperitoneal 100 mg/kg, 60 minutes
[12] = ip, 1 h, normal mice, intraperitoneal 100 mg/kg, 60 minutes
[13] = po, SART stress mice, peroral 100 mg/kg, average of 30, 60, 90 and 120 minutes
[14] = po, normal mice, peroral 100 mg/kg, average of 30, 60, 90 and 120 minutes
[15] = SART stress mice, intraperitoneal 50 mg/kg, 60 minutes
[16] = SART stress mice, peroral 50 mg/kg, average of 30, 60, 90 and 120 minutes
[17] = normal mice, intraperitoneal 50 mg/kg, 60 minutes
[18] = normal mice, peroral 50 mg/kg, average of 30, 60, 90 and 120 minutes
[19] = SART stress rats, intraperitoneal 100 mg/kg
[20] = SART stress rats, peroral 100 mg/kg
[21] = normal rats, intraperitoneal 100 mg/kg
[22] = ip, SART stress mice, intraperitoneal 100 mg/kg
[23] = ip, normal mice, intraperitoneal 100 mg/kg
[24] = po, SART stress mice, peroral 100 mg/kg
[25] = po, normal mice, peroral 100 mg/kg

For `O=C1NC(=O)C(c2ccc(O)cc2)(c2ccc(O)cc2)N1` [Compound 4, 5,5-Bis(4-hydroxyphenyl)hydantoin], the Heart rate (SART stress mice; 37.5 mg/kg/day) was 683 ± 61 min⁻¹, the QRS-time (SART stress mice; 37.5 mg/kg/day) was 12.2 ± 0.8 1/1000 sec and the LD50 at 72 h ([1]; female) was 1320 mg/kg. The LD50 at 72 h ([1]; male) was 1370 mg/kg, the change in vivo at 100 mg/kg [2, 11] was 162% and the change in vivo at 100 mg/kg [2, 12] was 41.6%. It also gave a change in vivo at 100 mg/kg [2, 13] of 67.3%, a change in vivo at 160 mg/kg ([2]; po, SART stress mice, average of 30, 60, 90 and 120 minutes) of 90.5% and a change in vivo at 100 mg/kg [2, 14] of 52.3%. It also gave a change in vivo at 160 mg/kg ([2]; po, normal mice, average of 30, 60, 90 and 120 minutes) of 68.2%, an Analgesic effect [2, 15] of 88.2% and an Analgesic effect [2, 16] of 56.8%. For the same compound, the Analgesic effect [2, 17] was 36.1%, the Analgesic effect [2, 18] was 38.8% and the inhibition in vivo at 25 mg/kg (dd-strain male mice [3]; 25 mg/kg intraperitoneal) was 14.2%. For the same compound, the inhibition in vivo at 75 mg/kg (dd-strain male mice [3]; 75 mg/kg intraperitoneal) was 39.1%, the inhibition in vivo at 125 mg/kg (dd-strain male mice [3]) was 53% and the “Inhibitory effect on exploratory movements” value (dd-strain male mice [4]; 50 mg/kg intraperitoneal) was 30.1%. For the same compound, the “Inhibitory effect on exploratory movements” value (dd-strain male mice [4]; 100 mg/kg intraperitoneal) was 54.5%, the “Inhibitory effect on exploratory movements” value (dd-strain male mice [4]; 125 mg/kg intraperitoneal) was 61.3% and the Rate of antihypertension ([5]; 100 mg/Kg intraperitoneal) was 21.5%. It also gave a Rate of antihypertension ([5]; 150 mg/Kg intraperitoneal) of 34.1%, a Rate of antihypertension ([5]; 300 mg/Kg intraperitoneal) of 45.7% and an LD50 at 72 h ([6]; female) of 980 mg/kg. It also gave an LD50 at 72 h ([6]; male) of 1060 mg/kg, an inhibition in vivo at 100 mg/kg ([7]; SART stress mice) of 33.6% and an inhibition in vivo at 100 mg/kg ([7]; normal mice) of 4.8%. The “Inhibitory effect on spontaneous motor activities” value (dd-strain male mice [8]; 50 mg/kg intraperitoneal) was 42.4%, the “Inhibitory effect on spontaneous motor activities” value (dd-strain male mice [8]; 75 mg/kg intraperitoneal) was 52.2% and the “Inhibitory effect on spontaneous motor activities” value (dd-strain male mice [8]; 100 mg/kg intraperitoneal) was 61.4%. For the same compound, the Analgesic effect [9, 19] was 100%, the Analgesic effect [9, 20] was 40% and the Analgesic effect [9, 21] was 100%. For the same compound, the Analgesic effect ([9]; normal rats, peroral 100 mg/kg) was 0%, the responders at 100 mg/kg [10, 22] was 60% and the responders at 100 mg/kg [10, 23] was 40%. It also gave a responders at 100 mg/kg [10, 24] of 50%, a responders at 160 mg/kg ([10]; po, SART stress mice) of 60% and a responders at 100 mg/kg [10, 25] of 20%. The responders at 160 mg/kg ([10]; po, normal mice) was 40%, the Analgesic effect ([10]; SART stress mice) was 40% and the Analgesic effect ([10]; normal mice) was 10%.
With `O=C1NC(=O)C(c2cc(O)c(O)c(O)c2)(c2cc(O)c(O)c(O)c2)N1` [Compound 36, 5,5-Bis(3,4,5-trihydroxyphenyl)hydantoin] the Heart rate (SART stress mice; 100 mg/kg/day) was 737 ± 65 min⁻¹, the QRS-time (SART stress mice; 100 mg/kg/day) was 13.8 ± 1.2 1/1000 sec and the LD50 at 72 h ([1]; female) was 1020 mg/kg. The LD50 at 72 h ([1]; male) was 1320 mg/kg, the change in vivo at 100 mg/kg [2, 11] was 180% and the change in vivo at 100 mg/kg [2, 12] was 67%. The change in vivo at 100 mg/kg [2, 13] was 102%, the change in vivo at 100 mg/kg [2, 14] was 49.9% and the Analgesic effect [2, 15] was 120.5%. For the same compound, the Analgesic effect [2, 16] was 63.3%, the Analgesic effect [2, 17] was 44.0% and the Analgesic effect [2, 18] was 40.3%. The inhibition in vivo at 125 mg/kg (dd-strain male mice [3]) was 31.2%, the “Inhibitory effect on exploratory movements” value (dd-strain male mice [4]; 50 mg/kg intraperitoneal) was 30.6% and the “Inhibitory effect on exploratory movements” value (dd-strain male mice [4]; 100 mg/kg intraperitoneal) was 36.7%. For the same compound, the Rate of antihypertension ([5]; 150 mg/Kg intraperitoneal) was 19.8%, the LD50 at 72 h ([6]; female) was 780 mg/kg and the LD50 at 72 h ([6]; male) was 820 mg/kg. For the same compound, the inhibition in vivo at 100 mg/kg ([7]; SART stress mice) was 29.4%, the inhibition in vivo at 100 mg/kg ([7]; normal mice) was 8.2% and the “Inhibitory effect on spontaneous motor activities” value (dd-strain male mice [8]; 50 mg/kg intraperitoneal) was 37.8%. The “Inhibitory effect on spontaneous motor activities” value (dd-strain male mice [8]; 100 mg/kg intraperitoneal) was 49.1%, the Analgesic effect [9, 19] was 50% and the Analgesic effect [9, 20] was 33.3%. The Analgesic effect [9, 21] was 33.3%, the Analgesic effect ([9]; normal rats, peroral 100 mg/kg) was 10% and the responders at 100 mg/kg [10, 22] was 60%. For the same compound, the responders at 100 mg/kg [10, 23] was 40%, the responders at 100 mg/kg [10, 24] was 30% and the responders at 160 mg/kg ([10]; po, SART stress mice) was 40%. For the same compound, the responders at 100 mg/kg [10, 25] was 20% and the responders at 160 mg/kg ([10]; po, normal mice) was 30%.
